Assay results published in ChEMBL document CHEMBL1201862, “PubChem BioAssay data set” (2004).
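Cultured in 96-well plates, cells were exposed to test compound for 48 hours across five concentrations. The concentration for 50% growth inhibition is given as GI50.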 Activity calls are given as the source filed them. Rule as the data show it: active = GI50 up to about 1.1 µM and inactive = higher.

Columns and labels:
Assay in all cases: NCI tumour cell line growth inhibition, 48 h
KM12 = test system: KM12
HT-29 = test system: HT-29
LOX IMVI = test system: LOX IMVI
RXF 393 = test system: RXF 393
SNB-19 = test system: SNB-19
RPMI-8226 = test system: RPMI-8226
TK-10 = test system: TK-10
SF-295 = test system: SF-295
HCC 2998 = test system: HCC 2998
UACC-257 = test system: UACC-257
UO-31 = test system: UO-31
Hs-578T = test system: Hs-578T
Malme-3M = test system: Malme-3M
MDA-MB-231 = test system: MDA-MB-231
SK-MEL-2 = test system: SK-MEL-2
OVCAR-5 = test system: OVCAR-5
NCI-H226 = test system: NCI-H226
SNB-75 = test system: SNB-75
HCT-15 = test system: HCT-15
MCF7 = test system: MCF7

SMILES	GI50 (KM12)	GI50 (HT-29)	GI50 (LOX IMVI)	GI50 (RXF 393)	GI50 (SNB-19)	GI50 (RPMI-8226)	GI50 (TK-10)	GI50 (SF-295)	GI50 (HCC 2998)	GI50 (UACC-257)	GI50 (UO-31)	GI50 (Hs-578T)	GI50 (Malme-3M)	GI50 (MDA-MB-231)	GI50 (SK-MEL-2)	GI50 (OVCAR-5)	GI50 (NCI-H226)	GI50 (SNB-75)	GI50 (HCT-15)	GI50 (MCF7)
O=C(O)CCC(NC(=O)c1ccc(Oc2nc3ccccc3nc2C(=O)O)cc1)C(=O)O (centres undefined)	> 100 µM (inactive)	> 100 µM (inactive)	> 100 µM (inactive)	> 100 µM (inactive)	> 100 µM (inactive)	> 100 µM (inactive)	> 100 µM (inactive)	> 100 µM (inactive)	> 100 µM (inactive)	> 100 µM (inactive)	> 100 µM (inactive)	> 100 µM (inactive)	> 100 µM (inactive)	> 100 µM (inactive)	> 100 µM (inactive)	> 100 µM (inactive)	> 100 µM (inactive)	> 100 µM (inactive)	> 100 µM	–
CSc1nc(O)c2cn(Cc3ccccc3)nc2n1	> 100 µM (inactive)	98.2 µM (inactive)	> 100 µM (inactive)	> 91 µM (inactive)	> 100 µM (inactive)	> 100 µM (inactive)	> 61.7 µM (inactive)	> 100 µM (inactive)	> 100 µM (inactive)	> 100 µM (inactive)	> 87.3 µM (inactive)	–	> 100 µM (inactive)	–	> 100 µM (inactive)	> 100 µM (inactive)	> 100 µM (inactive)	> 86.1 µM (inactive)	> 75.3 µM	–
COc1ccccc1Nc1nc2c([nH]1)c(=O)n(C)c(=O)n2C	> 10 µM (inactive)	> 10 µM (inactive)	> 10 µM (inactive)	> 10 µM (inactive)	–	> 10 µM (inactive)	> 10 µM (inactive)	> 10 µM (inactive)	> 10 µM (inactive)	> 10 µM (inactive)	–	–	> 10 µM (inactive)	> 10 µM (inactive)	–	–	–	> 10 µM (inactive)	> 10 µM	> 10 µM (inactive)
C/C(=C\CNc1ncnc2c1ncn2C1CCCCO1)COP(=O)(O)O (centres undefined)	> 100 µM (inactive)	> 100 µM (inactive)	> 100 µM (inactive)	> 100 µM (inactive)	> 100 µM (inactive)	> 100 µM (inactive)	> 100 µM (inactive)	> 100 µM (inactive)	> 100 µM (inactive)	> 100 µM (inactive)	> 100 µM (inactive)	–	> 100 µM (inactive)	–	> 100 µM (inactive)	> 100 µM (inactive)	> 100 µM (inactive)	> 100 µM (inactive)	> 100 µM	–
CC(C)=Cc1cc(C)c2c(O)cc(C)c3c2c1C(C)=C(O)C3=O	20.5 µM (inactive)	14.9 µM (inactive)	20.1 µM (inactive)	–	47.4 µM (inactive)	0.0257 µM (active)	–	22.2 µM (inactive)	–	36.6 µM (inactive)	32.7 µM (inactive)	27 µM (inactive)	–	24.9 µM (inactive)	22.9 µM (inactive)	28.7 µM (inactive)	21.5 µM (inactive)	–	23 µM	24.3 µM (inactive)
O=[N+]([O-])c1cccnc1S(=O)(=O)c1ccccc1	19.6 µM (inactive)	6.41 µM (inactive)	4.46 µM (inactive)	1.99 µM (inactive)	19.8 µM (inactive)	8.71 µM (inactive)	10 µM (inactive)	18.5 µM (inactive)	13.6 µM (inactive)	17.4 µM (inactive)	6.52 µM (inactive)	–	11.1 µM (inactive)	–	16.2 µM (inactive)	15.8 µM (inactive)	15.8 µM (inactive)	19.9 µM (inactive)	7.55 µM	–
C=C1CC[C@@H]2C13[C@@H]1[C@H](CC(=O)[C@@]23C)C1(C)C (some centres undefined)	> 100 µM (inactive)	> 100 µM (inactive)	> 100 µM (inactive)	43.6 µM (inactive)	–	> 100 µM (inactive)	33.7 µM (inactive)	82 µM (inactive)	–	> 100 µM (inactive)	16.4 µM (inactive)	> 100 µM (inactive)	> 100 µM (inactive)	–	> 100 µM (inactive)	> 100 µM (inactive)	> 100 µM (inactive)	–	> 100 µM	> 100 µM (inactive)
CC1(C)C[C@H]2[C@H](O)C(CO)=C3C(=O)[C@@H](O)[C@]3(C)[C@H]2C1	> 100 µM (inactive)	85.7 µM (inactive)	44.4 µM (inactive)	61.7 µM (inactive)	> 100 µM (inactive)	38.4 µM (inactive)	> 100 µM (inactive)	> 100 µM (inactive)	> 100 µM (inactive)	> 100 µM (inactive)	89.5 µM (inactive)	–	> 100 µM (inactive)	> 100 µM (inactive)	> 100 µM (inactive)	> 100 µM (inactive)	> 100 µM (inactive)	–	52.5 µM	44.8 µM (inactive)
CC12CCCC3(CC(=O)C(C)(C)C3C(=O)C1)C2 (centres undefined)	> 100 µM (inactive)	> 100 µM (inactive)	> 100 µM (inactive)	–	> 100 µM (inactive)	> 100 µM (inactive)	> 100 µM (inactive)	> 100 µM (inactive)	–	> 100 µM (inactive)	> 100 µM (inactive)	> 100 µM (inactive)	> 100 µM (inactive)	–	> 100 µM (inactive)	> 100 µM (inactive)	> 100 µM (inactive)	> 100 µM (inactive)	> 100 µM	> 100 µM (inactive)
CC(O)C(N/C=C1/N=C(c2ccccc2)OC1=O)C(=O)O (centres undefined)	> 100 µM (inactive)	> 100 µM (inactive)	> 100 µM (inactive)	> 100 µM (inactive)	> 100 µM (inactive)	> 100 µM (inactive)	> 100 µM (inactive)	> 100 µM (inactive)	> 100 µM (inactive)	> 100 µM (inactive)	> 100 µM (inactive)	–	> 100 µM (inactive)	–	> 100 µM (inactive)	> 100 µM (inactive)	> 100 µM (inactive)	> 100 µM (inactive)	10 µM	–
O=C1CC2CCN(C(=O)c3ccccc3)CC2CCN1 (centres undefined)	> 100 µM (inactive)	> 100 µM (inactive)	> 100 µM (inactive)	> 100 µM (inactive)	> 100 µM (inactive)	> 100 µM (inactive)	> 100 µM (inactive)	> 100 µM (inactive)	> 100 µM (inactive)	> 100 µM (inactive)	> 100 µM (inactive)	–	> 100 µM (inactive)	–	0.578 µM (active)	> 100 µM (inactive)	> 100 µM (inactive)	> 100 µM (inactive)	> 100 µM	–
Cc1cccc(/C=C2/C(=O)Nc3ccccc32)n1	13.2 µM (inactive)	24.1 µM (inactive)	–	10.6 µM (inactive)	23.7 µM (inactive)	14.7 µM (inactive)	15.7 µM (inactive)	17.9 µM (inactive)	10.6 µM (inactive)	–	14.3 µM (inactive)	24.2 µM (inactive)	16.3 µM (inactive)	–	12.8 µM (inactive)	11.9 µM (inactive)	–	28.8 µM (inactive)	13.3 µM	5.79 µM (inactive)
Clc1nc(Nc2nc3ccccc3[nH]2)nc(Cl)c1-c1ccccc1	40.8 µM (inactive)	16.8 µM (inactive)	–	16.9 µM (inactive)	36.1 µM (inactive)	34.3 µM (inactive)	39.4 µM (inactive)	18 µM (inactive)	–	29.7 µM (inactive)	20.8 µM (inactive)	21.5 µM (inactive)	19.1 µM (inactive)	12.7 µM (inactive)	23.3 µM (inactive)	28.3 µM (inactive)	20.5 µM (inactive)	9.38 µM (inactive)	14.4 µM	–
Cc1c2c(Cl)c3c(c(Cl)c2c(C)c2c(Cl)c4c(c(Cl)c12)C(c1ccccc1)(c1ccccc1)C4(c1ccccc1)c1ccccc1)C(c1ccccc1)(c1ccccc1)C3(c1ccccc1)c1ccccc1	> 100 µM (inactive)	> 100 µM (inactive)	> 100 µM (inactive)	> 100 µM (inactive)	> 100 µM (inactive)	–	> 100 µM (inactive)	> 100 µM (inactive)	> 100 µM (inactive)	> 100 µM (inactive)	> 100 µM (inactive)	–	> 100 µM (inactive)	> 100 µM (inactive)	> 100 µM (inactive)	> 100 µM (inactive)	> 100 µM (inactive)	> 100 µM (inactive)	> 100 µM	> 100 µM (inactive)
N=C(N)NNC(=O)CCn1[nH]c(=O)c(Cl)c(Cl)c1=O	> 100 µM (inactive)	> 100 µM (inactive)	> 100 µM (inactive)	> 100 µM (inactive)	> 100 µM (inactive)	> 100 µM (inactive)	> 100 µM (inactive)	> 100 µM (inactive)	> 100 µM (inactive)	> 100 µM (inactive)	> 100 µM (inactive)	–	> 100 µM (inactive)	–	> 100 µM (inactive)	> 100 µM (inactive)	> 100 µM (inactive)	> 100 µM (inactive)	> 100 µM	–
O=C(NC12CC3CC(CC(C3)C1)C2)C(=O)c1c[nH]c2ccc(Br)cc12	7.08 µM (inactive)	3.71 µM (inactive)	5.25 µM (inactive)	2.43 µM (inactive)	33.5 µM (inactive)	6.67 µM (inactive)	28.8 µM (inactive)	4.18 µM (inactive)	22.6 µM (inactive)	43.4 µM (inactive)	26.2 µM (inactive)	–	17.9 µM (inactive)	–	56.9 µM (inactive)	36.9 µM (inactive)	20.2 µM (inactive)	12.6 µM (inactive)	5.79 µM	–
